Conditions: free acid ion-paired with arginine in Arlatone G / ginger oil / water cubic phase; overlain with large excess of water; two days
Source text: The antiosteolytic drug Alendronate (as the free acid) was incorporated into a cubic phase based on the ethoxylated, hydrogenated castor oil surfactant Arlatone G (from Uniquema).

Q: With `NCCCC(O)(P(=O)(O)O)P(=O)(O)O` [alendronate, Alendronate] as the compound, how does the “amount of alendronate which leaked out of the cubic phase into the water” value read?
A: The value was “undetectable”.
